Data taken from patent US11247987B2, “Inhibiting ubiquitin specific peptidase 30” (FORMA Therapeutics, Inc., priority 2017, dated 2022).

Target: T1, human recombinant USP30 (Homo sapiens, UniProt Q70CQ3)
T1 construct: purchased Boston Biochem E-582
T1 sequence (Q70CQ3 1-517): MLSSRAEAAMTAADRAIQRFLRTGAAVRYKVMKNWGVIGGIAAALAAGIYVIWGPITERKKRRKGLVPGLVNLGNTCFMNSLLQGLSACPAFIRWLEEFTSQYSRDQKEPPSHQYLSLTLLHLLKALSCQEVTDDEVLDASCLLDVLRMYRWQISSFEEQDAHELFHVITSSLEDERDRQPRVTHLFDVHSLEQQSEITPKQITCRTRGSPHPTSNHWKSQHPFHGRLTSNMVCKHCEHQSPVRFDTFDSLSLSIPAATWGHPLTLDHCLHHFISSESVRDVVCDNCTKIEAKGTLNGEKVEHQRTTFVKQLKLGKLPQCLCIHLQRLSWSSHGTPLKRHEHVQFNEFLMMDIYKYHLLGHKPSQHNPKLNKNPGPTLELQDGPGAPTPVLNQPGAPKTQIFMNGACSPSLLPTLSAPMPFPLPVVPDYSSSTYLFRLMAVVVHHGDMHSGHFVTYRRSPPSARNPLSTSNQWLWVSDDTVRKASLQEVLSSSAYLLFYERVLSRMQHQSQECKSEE
Assay: Ubiquitin-Rhodamine 110 Assay for USP30 Activity (USP30 Inhibitor Biochemical Assay)
Conditions: 0.2 nM USP30, 25 nM Ub-Rh110, 30 min preincubation, 30 min at room temperature; read-out: USP30 potency range (USP30 biochemical IC50 assay, IC50 ranges)
Outline: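 Human recombinant USP30 (0.2 nM final) was preincubated 30 min with compound (25 μM to 1.3 nM, 10-point) in Tris pH 8.0, 1 mM GSH, BGG and Triton X-100. Ub-Rh110 was then added for 30 min at room temperature and stopped with citric acid. Fluorescence at 485/535 nm gave % inhibition and a 4-parameter IC50 fit.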

Structure (SMILES): CC(C)c1ccc(CNC(=O)[C@H]2C[C@H](NC#N)C2)cc1 [Compound 1-70, (1r,3r)-3-(cyanoamino)-N-{[4-(propan-2-yl)phenyl]methyl} cyclobutane-1-carboxamide]
- IC50: < 0.1 µM

Structure (SMILES): CC(C)(C)[C@H]1CC[C@@H](NC(=O)[C@H]2C[C@H](NC#N)C2)CC1 [Compound 1-71, (1r,3r)-3-(cyanoamino)-N-[(1s,4s)-4-tert-butylcyclohexyl]cyclo-butane-1-carboxamide]
- IC50: 0.1 to 1 µM

Structure (SMILES): N#CN[C@H]1C[C@H](C(=O)Nc2cccc(C(F)(F)F)c2)C1 [Compound 1-73, (1r,3r)-3-(cyanoamino)-N-[3-(trifluoro-methyl)phenyl] cyclobutane-1-carboxamide]
- IC50: 0.1 to 1 µM

Structure (SMILES): N#CNC1CN(C(=O)Nc2ncc(C3CCCCC3)s2)C1 [Compound 2-1, 3-(cyanoamino)-N-(5-cyclohexyl-1,3-thiazol-2-yl)azetidine-1-carboxamide]
- IC50: 1 to 10 µM

Structure (SMILES): N#CN[C@H]1CCN(C(=O)Nc2ncc(C3CCCCC3)s2)C1 [Compound 2-2, (3S)-3-(cyanoamino)-N-(5-cyclohexyl-1,3-thiazol-2-yl)pyrrolidine-1-carboxamide]
- IC50: 1 to 10 µM

Structure (SMILES): N#CN[C@H]1C[C@H](NC(=O)c2ncc(-c3ccccc3)s2)C1 [Compound 3-1, 5-phenyl-N-[(trans)-3-(cyanoamino)cyclobutyl]-1,3-thiazole-2-carboxamide]
- IC50: 1 to 10 µM

Structure (SMILES): N#CNC1CC2(CCN2C(=O)c2cnc(-c3ccccc3)s2)C1 (stereo not drawn) [Compound 3-2, {[1-(2-phenyl-1,3-thiazole-5-carbonyl)-l-azaspiro[3.3]heptan-6-yl]amino} carbonitrile]
- IC50: 0.1 to 1 µM

Structure (SMILES): Cn1cc(-c2ccc(-c3cc(C(=O)N[C@H]4C[C@@H](NC#N)C4)on3)cc2)cn1 [Compound 3-3, 3-[4-(1-methyl-1H-pyrazol-4-yl)phenyl]-N-[(1s,3s)-3-(cyanoamino)cyclobutyl]-1,2-oxazole-5-carboxamide]
- IC50: 0.1 to 1 µM

Structure (SMILES): Cn1cc(-c2ccc(-c3cc(C(=O)N4CCC[C@]45C[C@H](NC#N)C5)on3)cc2)cn1 [Compound 3-4, {[(2r,4s)-5-{3-[4-(1-methyl-1H-pyrazol-4-yl)phenyl]-1,2-oxazole-5-carbonyl}-5-azaspiro[3.4]octan-2-yl]amino} carbonitrile]
- IC50: 0.1 to 1 µM

Structure (SMILES): Cn1cc(-c2ccc(-c3cc(C(=O)N4CC[C@]45C[C@@H](NC#N)C5)on3)cc2)cn1 [Compound 3-5, {[(4r,6s)-1-{3-[4-(1-methyl-1H-pyrazol-4-yl)phenyl]-1,2-oxazole-5-carbonyl}-1-azaspiro[3.3]heptan-6-yl]amino} carbonitrile]
- IC50: 0.1 to 1 µM

Structure (SMILES): CN(C(=O)c1cc(-c2cccc(C#N)c2)no1)[C@H]1C[C@H](NC#N)C1 [Compound 3-6, 3-(3-cyanophenyl)-N-methyl-N-[(1r,3r)-3-(cyanoamino)cyclobutyl]-1,2-oxazole-5-carboxamide]
- IC50: 1 to 10 µM

Structure (SMILES): N#CN[C@H]1C[C@@H](NC(=O)c2ncc(-c3ccccc3)s2)C1 [Compound 4-1, 5-phenyl-N-[(cis)-3-(cyanoamino)cyclobutyl]-1,3-thiazole-2-carboxamide]
- IC50: 1 to 10 µM

Structure (SMILES): N#CN[C@H]1C[C@@H](C(=O)Nc2cnn(-c3ccccc3)c2)C1 [Compound 5-1, cis-3-(cyanoamino)-N-(1-phenyl-1H-pyrazol-4-yl)cyclobutane-1-carboxamide]
- IC50: 1 to 10 µM

Structure (SMILES): N#CN[C@H]1C[C@@H](C(=O)Nc2ccn(-c3ccccc3)n2)C1 [Compound 5-2, cis-3-(cyanoamino)-N-(1-phenyl-1H-pyrazol-3-yl)cyclobutane-1-carboxamide]
- IC50: 10 to 25 µM

Structure (SMILES): N#CN[C@H]1C[C@@H](C(=O)Nc2ncc(C3CCCCC3)s2)C1 [Compound 5-3, cis-3-(cyanoamino)-N-(5-cyclohexyl-1,3-thiazol-2-yl)cyclobutane-1-carboxamide]
- IC50: 1 to 10 µM

Structure (SMILES): N#CN[C@H]1C[C@@H](C(=O)Nc2ncc(-c3ccccc3)s2)C1 [Compound 5-4, cis-3-(cyanoamino)-N-(5-phenyl-1,3-thiazol-2-yl)cyclobutane-1-carboxamide]
- IC50: 1 to 10 µM

Structure (SMILES): N#CN[C@H]1C[C@H](C(=O)Nc2cnn(-c3ccccc3)c2)C1 [Compound 5-5, trans-3-(cyanoamino)-N-(1-phenyl-1H-pyrazol-4-yl)cyclobutane-1-carboxamide]
- IC50: 1 to 10 µM

Structure (SMILES): N#CN[C@H]1C[C@H](C(=O)Nc2ccn(-c3ccccc3)n2)C1 [Compound 5-6, trans-3-(cyanoamino)-N-(1-phenyl-1H-pyrazol-3-y1)cyclobutane-1-carboxamide]
- IC50: 1 to 10 µM

Structure (SMILES): N#CN[C@H]1C[C@H](C(=O)Nc2ncc(C3CCCCC3)s2)C1 [Compound 5-7, trans-3-(cyanoamino)-N-(5-cyclohexyl-1,3-thiazol-2-yl)cyclobutane-1-carboxamide]
- IC50: 0.1 to 1 µM

Structure (SMILES): N#CN[C@H]1C[C@H](C(=O)Nc2ncc(-c3ccccc3)s2)C1 [Compound 5-8, trans-3-(cyanoamino)-N-(5-phenyl-1,3-thiazol-2-yl)cyclobutane-1-carboxamide]
- IC50: 1 to 10 µM

Structure (SMILES): N#CN[C@H]1C[C@@H](C(=O)Nc2ccc3c(c2)CCC3)C1 [Compound 5-9, cis-3-(cyanoamino)-N-(2,3-dihydro-1H-inden-5-yl)cyclobutane-1-carboxamide]
- IC50: 1 to 10 µM

Structure (SMILES): CC(C)(C)c1cnc(NC(=O)[C@H]2C[C@@H](NC#N)C2)s1 [Compound 5-10, cis-N-(5-tert-butyl-1,3-thiazol-2-yl)-3-(cyanoamino)cyclobutane-1-carboxamide]
- IC50: 10 to 25 µM

Structure (SMILES): N#CN[C@H]1C[C@@H](C(=O)N2CCN(c3ccccc3)CC2)C1 [Compound 5-11, {[cis-3-(4-phenylpiperazine-1-carbonyl)cyclobutyl]amino} carbonitrile]
- IC50: 10 to 25 µM

Structure (SMILES): N#CN[C@H]1C[C@H](C(=O)Nc2ccc3c(c2)CCC3)C1 [Compound 5-12, trans-3-(cyanoamio)-N-(2,3-dihydro-1H-inden-5-yl)cyclobutane-1-carboxamide]
- IC50: 1 to 10 µM

Structure (SMILES): CC(C)(C)c1cnc(NC(=O)[C@H]2C[C@H](NC#N)C2)s1 [Compound 5-13, trans-N-(5-tert-butyl-1,3-thiazol-2-yl)-3-(cyanoamino)cyclobutane-1-carboxamide]
- IC50: 0.1 to 1 µM

Structure (SMILES): N#CN[C@H]1C[C@H](C(=O)Nc2ccc(N3CCOCC3)cc2)C1 [Compound 5-14, trans-3-(cyanoamino)-N-[4-(morpholin-4-yl)phenyl]cylobutane-1-carboxamide]
- IC50: 10 to 25 µM

Structure (SMILES): N#CN[C@H]1C[C@@]2(CCN(c3nc(Cl)c(C4CCCCC4)s3)C2=O)C1 [Compound 7-2, {[(2s,4r)-6-(4-chloro-5-cyclohexyl-l,3-thiazol-2-yl)-5-oxo-6-azaspiro[3.4]octan-2-yl]amino}carbonitrile]
- IC50: 0.1 to 1 µM

Structure (SMILES): N#CN[C@H]1C[C@]2(CCN(c3nc(Cl)c(C4CCCCC4)s3)C2=O)C1 [Compound 7-3, {[(2r,4s)-6-(4-chloro-5-cyclohexyl-1,3-thiazol-2-yl)-5-oxo-6-azaspiro[3.4]octan-2-yl]amino}carbonitrilc]
- IC50: < 0.1 µM

Structure (SMILES): CO[C@]1(C(=O)Nc2nc(Cl)c(C(C)(C)C)s2)C[C@@H](NC#N)C1 [Compound 8-1, N-(5-tert-butyl-4-chloro-1,3-thiazol-2-yl)-3-(cyanoamino)-1-methoxycyclobutane-1-carboxamide]
- IC50: < 0.1 µM

Structure (SMILES): N#CN[C@H]1CC[C@@H](C(=O)Nc2ncc(C3CCCCC3)s2)CC1 [Compound 10-1, cis-4-(cyanoamino)-N-(5-cyclohexyl-1,3-thiazol-2-yl)cyclohexane-1-carboxamide]
- IC50: 0.1 to 1 µM

Structure (SMILES): N#CN[C@H]1CC[C@H](C(=O)Nc2ncc(C3CCCCC3)s2)CC1 [Compound 10-2, trans-4-(cyanoamino)-N-(5-cyclohexyl-1,3-thiazol-2-yl)cyclohexane-1-carboxamide]
- IC50: 1 to 10 µM

Structure (SMILES): N#CN[C@@H]1CCC[C@H]1C(=O)Nc1ncc(C2CCCCC2)s1 [Compound 10-3, (1R,2R)-2-(cyanoamino)-N-(5-cyclohexyl-1,3-thiazol-2-yl)cyclopentane-1-carboxamide]
- IC50: 1 to 10 µM

Structure (SMILES): N#CN[C@H]1CCC[C@@H](C(=O)Nc2ncc(C3CCCCC3)s2)C1 [Compound 10-4, (1R,3S)-3-(cyanoamino)-N-(5-cyclohexyl-1,3-thiazol-2-yl)cyclohexane-1-carboxamide]
- IC50: > 25 µM

Structure (SMILES): N#CN[C@H]1CCC[C@H](C(=O)Nc2ncc(C3CCCCC3)s2)C1 [Compound 10-5, (1S,3S)-3-(cyanoamino)-N-(5-cyclohexyl-1,3-thiazol-2-yl)cyclohexane-1-carboxamide]
- IC50: > 25 µM

Structure (SMILES): N#CN[C@@H]1CCC[C@H](C(=O)Nc2ncc(C3CCCCC3)s2)C1 [Compound 10-6, (1S,3R)-3-(cyanoamino)-N-(5-cyclohexyl-1,3-thiazol-2-yl)cyclohexane-1-carboxamide]
- IC50: 1 to 10 µM

Structure (SMILES): N#CN[C@H]1CCC[C@H]1C(=O)Nc1ncc(C2CCCCC2)s1 [Compound 10-7, (1R,2S)-2-(cyanoamino)-N-(5-cyclohexyl-1,3-thiazol-2-yl)cyclopentane-1-carboxamide]
- IC50: 1 to 10 µM

Structure (SMILES): N#CN[C@@H]1CCC[C@@H]1C(=O)Nc1ncc(C2CCCCC2)s1 [Compound 10-8, (1S,2R)-2-(cyanoamino)-N-(5-cyclohexyl-1,3-thiazol-2-yl)cyclopentane-1-carboxamide]
- IC50: 1 to 10 µM
